Results reported in patent US20230042653A1, “COMBINATIONS” (Recurium IP Holdings, LLC, priority 2019, published 2023).

Tested on: MCF-7 xenograft tumor
Test: MCF-7 xenograft tumor model, combination study
Type: in vivo
Conditions: single agent, FIG. 3

Row | Compound | TGI (dose not printed for the single agent) | TGI (10 mg/kg)
1 | C=CCn1c(=O)c2cnc(Nc3ccc(N4CCN(C)CC4)cc3)nc2n1-c1cccc(C(C)(C)O)n1 [Compound 1] | 122.8% | –
2 | C[C@@H]1Cc2c([nH]c3ccccc23)[C@@H](c2c(F)cc(/C=C/C(=O)O)cc2F)N1C12CC(C1)C2 [Compound (A)] | – | 128.3%
